“Also recorded” adds a separate entry of the source. Bridges are numbered along the chain shown (N, C = ends). Where no end group is shown, it is not given here.
Tests used:
Tamm-Horsfall protein [1] = biological target: T1, Tamm-Horsfall protein (Homo sapiens, UniProt P07911); assay: Competitive ELISA: peptide inhibition of Tamm-Horsfall protein binding to immunoglobulin light chains bound in microtiter wells; settings: for inhibition of binding between Tamm-Horsfall protein and human light chains (in words): six human light chains (λ2, 3 and 5 and κ3, 6, and 7), FIG. 7; for inhibition of binding of Tamm-Horsfall protein to immunoglobulin light chain (in words): uncyclized and cyclized peptide, FIG. 5
Source text: Peptides known to react with the Tamm-Horsfall protein in the yeast two-hybrid assay were synthesized, cyclized, and used as inhibitors in a competitive ELISA experiment. The peptides were cyclized by adding cysteine residues to the amino and carboxyl-terminal portions of the peptides and generating an intramolecular disulfide bridge (FIG. 4). Cyclization facilitates formation of the loop structure in solution. Both the linear and cyclized peptides inhibited the binding of the Tamm-Horsfall protein to the immunoglobulin light chains bound in the wells of the microtiter plate, but the efficiency of inhibition was increased by cyclization of the peptide inhibitor.
(§1) Mutation of the CDR3 sequence to disrupt the loop structure by substituting amino acid residues with phenyalanine confirmed that the secondary structure was an important determinant of binding (FIG. 6). The inhibitory capability of cyclized experimental (CLSADSSGSYLYVC (SEQ ID NO:32)) and control (CLSAFSFGFYLYVC (SEQ ID NO:33)) peptides were then compared in a competitive ELISA assay.

Tamm-Horsfall protein [2] = assay: Yeast two-hybrid assay of CDR3 inserts ligated between Framework 2 and Framework 3 of LKPBLL53; assay type: binding, human; settings: FIG. 6, N=7
Source text: Addition of the framework regions permits each CDR3, which was ligated into the construct using Sma1 and BamH1, to achieve proper folding into a loop structure. […] The CDR3 domain of ITPBLL2 differed from the CDR3 domain of ITPBLL1 (SEQ ID NO:28) by only two amino acids (underlined), which were sufficient to inhibit formation of a loop structure, and, thus, binding to the Tamm-Horsfall protein. […] N=6 experiments for each group.
Among those CDR3 domains that were predicted to form a loop, affinity for the Tamm-Horsfall protein was strong and correlated with that observed using the intact VL from the parent light chain.
as §1

[3] = test system: rat model of cast nephropathy; assay: Rat model of cast nephropathy by administration of human kappa and lambda light chains; assay type: in vivo; settings: rats given human kappa and lambda light chains
Description: The competitor peptides, SEQ ID NO:1 and SEQ ID NO:2, have been used in a rat model of cast nephropathy, which employed administration of human kappa and lambda light chains. […] Rats were injected intraperitoneally with 40 mg of cyclized competitor peptide, SEQ ID NO:2 (pep), or vehicle alone (veh) just prior to intraperitoneal injection of 100 mg of human kappa or lambda light chain purified from patients who had multiple myeloma and kidney damage. On the following day, rats also received an additional injection of competitor peptides, SEQ ID NO:1 (20 mg) or vehicle. Rats were examined three days after the initial injection.

Tamm-Horsfall protein [4] = biological target: T1, Tamm-Horsfall protein; assay: Competition studies of synthetic CDR3 peptide with light chains from myeloma patients for binding to Tamm-Horsfall protein; settings: six different immunoglobulin light chains from patients with myeloma and cast nephropathy
Source text: The yeast two-hybrid system was employed to determine the site on the immunoglobulin light chain that interacted with the Tamm-Horsfall protein. Using 248- and 787-base pair fragments of the Tamm-Horsfall protein, which contained the previously described immunoglobulin light chain-binding domain, the interaction with unique immunoglobulin light chains that represented a variety of the known isotypes of κ and λ immunoglobulin light chains was examined. […] While this was considered an advance, this peptide was not considered to bind avidly enough to the Tamm-Horsfall protein to serve as an effective inhibitor in vivo.

With “CLSAFSFGFYLYVC (disulfide 1-14 (inferred)) [cyclized control peptide, reference compound]” the “inhibition of binding between Tamm-Horsfall protein and human light chains (in words)” value (Tamm-Horsfall protein [1]) was “did not effectively inhibit binding”.
For “LSAFSFGSYLYV [ITPBLL86 CDR3 mutated with two phenylalanines]”, the “interaction of wildtype and phenylalanine-mutated CDR3 sequence with Tamm-Horsfall protein (in words)” value (“interaction” below) (Tamm-Horsfall protein [2]) was “none of the mutated sequences interacted”.
In the case of “LSADSSGSYLYVF [peptide 2, LSADSSGSYLYVF]”, the “inhibition of binding of Tamm-Horsfall protein to immunoglobulin light chain (in words)” value (Tamm-Horsfall protein [1]) is reported as “inhibit binding” and the “effect on cast formation, acute renal failure and renal function (in words)” value [3] is reported as “prevented cast formation and acute renal failure and improved renal function”.
With “LSAFSFGFYLYV [ITPBLL86 CDR3 mutated with three phenylalanines]” the “interaction” value (Tamm-Horsfall protein [2]) was “none of the mutated sequences interacted”.
In the case of “CLSADSSGSYLYVC (disulfide 1-14 (inferred)) [cyclized experimental peptide]”, the “inhibition of binding between Tamm-Horsfall protein and human light chains (in words)” value (Tamm-Horsfall protein [1]) is reported as “completely prevented the binding; also recorded: very efficient inhibitor”.
“QSYDNTLSGSYVF [peptide 1, QSYDNTLSGSYVF]” was tested, and the “inhibition of binding of Tamm-Horsfall protein to immunoglobulin light chain (in words)” value (Tamm-Horsfall protein [1]) was “inhibit binding” and the “effect on cast formation, acute renal failure and renal function (in words)” value [3] was “prevented cast formation and acute renal failure and improved renal function”.
With “LSAFSSGSYLYV [ITPBLL86 CDR3 mutated with one phenylalanine]” the “interaction” value (Tamm-Horsfall protein [2]) was “none of the mutated sequences interacted”.
With LSADSSGSYLYV the “interaction” value (Tamm-Horsfall protein [2]) was “interacted strongly”.
For “MQGTHWPPLT [synthetic peptide identical to the CDR3 region of SSH23]”, the “competition with light chains for binding to Tamm-Horsfall protein (in words)” value (Tamm-Horsfall protein [4]) was “effectively competed”.
